In data set [1] the target is T1, Nuclear receptor ROR-gamma (Mus musculus) (UniProt P51450).
T1 sequence (whole entry): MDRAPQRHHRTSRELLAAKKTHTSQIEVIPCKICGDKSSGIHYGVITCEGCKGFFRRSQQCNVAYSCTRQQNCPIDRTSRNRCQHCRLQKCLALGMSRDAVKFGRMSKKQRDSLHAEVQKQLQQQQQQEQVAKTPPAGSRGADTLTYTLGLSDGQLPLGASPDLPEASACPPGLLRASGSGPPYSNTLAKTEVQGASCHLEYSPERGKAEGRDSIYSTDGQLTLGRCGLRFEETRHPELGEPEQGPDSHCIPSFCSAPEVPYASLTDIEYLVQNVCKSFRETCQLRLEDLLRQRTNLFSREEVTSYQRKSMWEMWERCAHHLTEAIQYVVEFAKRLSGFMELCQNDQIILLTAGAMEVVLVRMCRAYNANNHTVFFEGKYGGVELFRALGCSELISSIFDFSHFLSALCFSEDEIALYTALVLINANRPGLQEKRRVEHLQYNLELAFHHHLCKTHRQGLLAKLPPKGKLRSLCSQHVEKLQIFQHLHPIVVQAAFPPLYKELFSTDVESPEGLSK
Description: Transrepression of RORgammat in Balb/c mouse splenocytes assessed as inhibition of anti-CD3/anti-CD28 stimulated IL-17 gene expression at 0.3 uM measured after 24 hrs in presence of anti-CD3/anti-CD28. The data set is classed as cell-based.

Data set [2] is described as follows: Solubility of the compound at pH 7.4. To be noted: buffer.
The target of data set [3] is T1, Nuclear receptor ROR-gamma (Mus musculus). The data set is described as follows: Transrepression of RORgammat in Balb/c mouse splenocytes assessed as inhibition of anti-CD3/anti-CD28 stimulated IL-17 gene expression at 30 uM measured after 24 hrs in presence of anti-CD3/anti-CD28. The data set is classed as cell-based.
Data set [4] addresses Cytochrome P450 2C9 (Homo sapiens, UniProt P11712). Description: Inhibition of CYP2C9 in human liver microsomes using diclofenac as substrate preincubated for 5 mins followed by NADPH addition measured after 10 mins by LC-MS/MS analysis.
The nature of data set [5]: Metabolic stability in rat liver microsomes assessed as parent compound remaining at 1 uM preincubated for 5 mins followed by NADPH addition after 30 mins by LC-MS/MS analysis. The data set is classed as ADME, Microsome. The note with it: read-out: Stability.
Data set [6] can be described thus: Cmax in mouse at 10 mg/kg, po. The format is ADME, organism-based. To be noted: in vivo. Further details: dose 10 mg/kg, route oral.
A short description of data set [7]: Clearance in mouse at 3 mg/kg, iv. The data set is classed as ADME, organism-based. To be noted: in vivo.
Data set [8] is described as follows: Metabolic stability in human liver microsomes assessed as parent compound remaining at 1 uM preincubated for 5 mins followed by NADPH addition after 30 mins by LC-MS/MS analysis. The format is ADME, Microsome. The note with it: read-out: Stability. For orientation: Liver microsomes are vesicles of endoplasmic reticulum, rich in cytochrome P450 enzymes.
Data set [9] can be described thus: Solubility of the compound at pH 2.1. The note with it: buffer.
The nature of data set [10]: Tmax in mouse at 10 mg/kg, po. The data set is classed as ADME, organism-based. The note with it: in vivo.
Data set [11] addresses Cytochrome P450 3A4 (Homo sapiens, UniProt P08684). The data set is described as follows: Inhibition of CYP3A4 in human liver microsomes using midazolam as substrate preincubated for 5 mins followed by NADPH addition measured after 10 mins by LC-MS/MS analysis.
For data set [12], the target named is T2, Nuclear receptor ROR-gamma (Homo sapiens, UniProt P51449).
T2 sequence (P51449 whole entry): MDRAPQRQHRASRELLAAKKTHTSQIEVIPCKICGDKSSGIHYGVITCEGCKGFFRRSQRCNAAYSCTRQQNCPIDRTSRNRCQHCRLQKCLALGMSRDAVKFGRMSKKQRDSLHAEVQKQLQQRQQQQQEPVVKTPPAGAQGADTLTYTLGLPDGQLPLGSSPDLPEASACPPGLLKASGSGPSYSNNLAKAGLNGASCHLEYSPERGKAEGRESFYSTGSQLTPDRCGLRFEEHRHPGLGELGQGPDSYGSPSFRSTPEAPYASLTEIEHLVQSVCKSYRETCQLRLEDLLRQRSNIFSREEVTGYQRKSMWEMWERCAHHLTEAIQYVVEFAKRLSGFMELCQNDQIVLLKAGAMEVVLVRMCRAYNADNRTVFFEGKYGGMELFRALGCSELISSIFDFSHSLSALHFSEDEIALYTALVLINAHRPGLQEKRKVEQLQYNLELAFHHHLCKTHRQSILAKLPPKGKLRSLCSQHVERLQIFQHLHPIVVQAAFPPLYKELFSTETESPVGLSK
Description: Transactivation of recombinant GAL4-DBD fused RORgammat LBD (unknown origin) expressed in HEK293T cells incubated for 18 to 24 hrs by dual-Glo luciferase assay. The data set is classed as cell-based.

The nature of data set [13]: Half life in mouse at 3 mg/kg, iv. The format is ADME, organism-based. The note with it: in vivo.
Data set [14] has as its target T1, Nuclear receptor ROR-gamma (Mus musculus). The data set is described as follows: Transrepression of RORgammat in Balb/c mouse splenocytes assessed as inhibition of anti-CD3/anti-CD28 stimulated IL-17 gene expression at 3 uM measured after 24 hrs in presence of anti-CD3/anti-CD28. The format is cell-based.
Data set [15] deals with Cytochrome P450 2D6 (Homo sapiens, UniProt P10635). Description: Inhibition of CYP2D6 in human liver microsomes using dextromethorphan as substrate preincubated for 5 mins followed by NADPH addition measured after 10 mins by LC-MS/MS analysis.
The target in data set [16] is T3, Cytochrome P450 1A2 (Homo sapiens, UniProt P05177).
T3 sequence (P05177 whole entry): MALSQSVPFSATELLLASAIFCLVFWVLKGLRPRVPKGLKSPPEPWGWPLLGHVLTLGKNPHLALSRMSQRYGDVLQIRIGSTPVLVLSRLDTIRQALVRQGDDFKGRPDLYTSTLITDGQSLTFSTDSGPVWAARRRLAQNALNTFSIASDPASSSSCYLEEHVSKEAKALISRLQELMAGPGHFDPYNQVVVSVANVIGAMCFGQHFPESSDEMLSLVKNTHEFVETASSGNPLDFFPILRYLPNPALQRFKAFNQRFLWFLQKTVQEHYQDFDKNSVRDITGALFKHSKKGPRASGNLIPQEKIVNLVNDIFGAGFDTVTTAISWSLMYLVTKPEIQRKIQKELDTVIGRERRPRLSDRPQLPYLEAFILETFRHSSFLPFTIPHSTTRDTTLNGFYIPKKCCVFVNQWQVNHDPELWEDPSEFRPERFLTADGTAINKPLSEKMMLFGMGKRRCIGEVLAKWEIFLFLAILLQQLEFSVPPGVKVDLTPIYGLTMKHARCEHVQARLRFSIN
The data set is described as follows: Inhibition of CYP1A2 in human liver microsomes using phenacetin as substrate preincubated for 5 mins followed by NADPH addition measured after 10 mins by LC-MS/MS analysis.

Data set [17] can be described thus: Solubility of the compound at pH 4. The note with it: buffer.
Data set [18] can be described thus: AUC (0 to 24 hrs) in mouse at 10 mg/kg, po. The format is ADME, organism-based. Further details: dose 10 mg/kg, time < 24 hr, route oral. To be noted: in vivo.
The target of data set [19] is T4, Nuclear receptor ROR-alpha (Homo sapiens, UniProt P35398).
T4 sequence (P35398 whole entry): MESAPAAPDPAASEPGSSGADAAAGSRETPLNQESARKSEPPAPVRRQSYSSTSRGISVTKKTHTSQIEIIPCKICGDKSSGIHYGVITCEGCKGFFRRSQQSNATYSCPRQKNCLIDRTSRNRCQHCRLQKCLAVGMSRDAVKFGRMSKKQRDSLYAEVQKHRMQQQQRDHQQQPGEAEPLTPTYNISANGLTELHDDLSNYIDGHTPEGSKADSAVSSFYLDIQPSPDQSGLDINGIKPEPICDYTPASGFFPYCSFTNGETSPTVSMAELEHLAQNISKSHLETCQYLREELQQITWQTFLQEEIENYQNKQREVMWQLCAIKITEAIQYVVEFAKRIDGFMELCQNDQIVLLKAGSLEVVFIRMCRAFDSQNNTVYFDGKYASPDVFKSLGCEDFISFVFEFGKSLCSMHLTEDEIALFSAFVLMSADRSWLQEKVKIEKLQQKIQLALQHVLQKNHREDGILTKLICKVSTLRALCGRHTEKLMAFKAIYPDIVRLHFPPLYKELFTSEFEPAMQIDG
Description: Inhibition of GAL4-DBD fused RORalpha LBD (unknown origin) expressed in HEK293T cells. The data set is classed as cell-based.

Data set [20] in a line: Oral bioavailability in mouse at 10 mg/kg. The format is ADME, organism-based. To be noted: in vivo.
The nature of data set [21]: Volume of distribution at steady state in mouse at 3 mg/kg, iv. The format is ADME, organism-based. To be noted: in vivo, read-out: Vdss.
Data set [22] is described as follows: Metabolic stability in mouse liver microsomes assessed as parent compound remaining at 1 uM preincubated for 5 mins followed by NADPH addition after 30 mins by LC-MS/MS analysis. The data set is classed as ADME, Microsome. To be noted: read-out: Stability.
Data set [23] concerns the target Cytochrome P450 2C19 (Homo sapiens, UniProt P33261). Description: Inhibition of CYP2C19 in human liver microsomes using (S)-mephenytoin as substrate preincubated for 5 mins followed by NADPH addition measured after 40 mins by LC-MS/MS analysis.
Data set [24] relates to Mus musculus. Description: Protection against imiquimod-induced skin inflammation in BALB/c mouse psoriasis model assessed as decrease in scaling administered topically at 25 mg qd treated for 1 hr before IMQ application measured at day 5. The format is functional, organism-based.
The test system of data set [25] is Mus musculus. The data set is described as follows: Protection against imiquimod-induced skin inflammation in BALB/c mouse psoriasis model assessed as decrease in ear thickness administered topically at 25 mg qd treated for 1 hr before IMQ application measured at day 5. The data set is classed as functional, organism-based.
Data set [26] addresses T5, Nuclear receptor ROR-gamma (Homo sapiens) (UniProt P51449).
T5 sequence (whole entry): T2 sequence (P51449 whole entry)
Description: Transactivation of recombinant GAL4-DBD fused RORgammat LBD (unknown origin) expressed in HEK293T cells at 1 uM incubated for 18 to 24 hrs by dual-Glo luciferase assay relative to control. The format is cell-based.

pIC50: −log10 of the molar value. Converted amounts (≈) assume the structure as drawn. The source made the active and inactive calls. The rule behind the calls is not given here. Where only a bound is given, the exact number is not on record here.

Cytochrome P450 2C19, sequence (P33261 whole entry): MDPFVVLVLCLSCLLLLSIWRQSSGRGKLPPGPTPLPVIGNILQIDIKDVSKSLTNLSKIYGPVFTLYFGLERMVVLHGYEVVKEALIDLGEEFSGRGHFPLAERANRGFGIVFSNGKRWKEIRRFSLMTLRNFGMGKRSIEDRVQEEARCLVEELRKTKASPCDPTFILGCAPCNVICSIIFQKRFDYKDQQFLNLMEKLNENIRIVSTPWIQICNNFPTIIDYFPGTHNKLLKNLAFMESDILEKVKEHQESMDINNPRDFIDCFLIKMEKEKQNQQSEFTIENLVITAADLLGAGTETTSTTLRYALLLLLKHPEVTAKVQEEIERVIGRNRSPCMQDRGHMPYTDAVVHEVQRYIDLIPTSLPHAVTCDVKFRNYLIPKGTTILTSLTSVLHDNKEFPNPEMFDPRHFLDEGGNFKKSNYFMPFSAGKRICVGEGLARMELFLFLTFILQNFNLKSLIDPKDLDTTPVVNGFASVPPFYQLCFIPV
Cytochrome P450 3A4, sequence (P08684 whole entry): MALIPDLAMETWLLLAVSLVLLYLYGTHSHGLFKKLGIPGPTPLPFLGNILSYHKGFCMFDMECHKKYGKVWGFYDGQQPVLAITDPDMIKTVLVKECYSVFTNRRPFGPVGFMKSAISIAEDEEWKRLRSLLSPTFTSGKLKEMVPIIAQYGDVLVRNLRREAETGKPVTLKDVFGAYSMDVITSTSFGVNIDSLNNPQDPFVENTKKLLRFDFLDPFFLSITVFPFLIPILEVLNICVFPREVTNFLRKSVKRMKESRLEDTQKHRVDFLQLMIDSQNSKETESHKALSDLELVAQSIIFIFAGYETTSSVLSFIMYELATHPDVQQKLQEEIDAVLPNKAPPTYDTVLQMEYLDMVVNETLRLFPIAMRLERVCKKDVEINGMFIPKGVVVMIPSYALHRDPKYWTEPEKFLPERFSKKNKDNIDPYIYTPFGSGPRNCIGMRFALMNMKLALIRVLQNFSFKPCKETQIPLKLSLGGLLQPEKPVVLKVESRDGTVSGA
Cytochrome P450 2C9, sequence (P11712 whole entry): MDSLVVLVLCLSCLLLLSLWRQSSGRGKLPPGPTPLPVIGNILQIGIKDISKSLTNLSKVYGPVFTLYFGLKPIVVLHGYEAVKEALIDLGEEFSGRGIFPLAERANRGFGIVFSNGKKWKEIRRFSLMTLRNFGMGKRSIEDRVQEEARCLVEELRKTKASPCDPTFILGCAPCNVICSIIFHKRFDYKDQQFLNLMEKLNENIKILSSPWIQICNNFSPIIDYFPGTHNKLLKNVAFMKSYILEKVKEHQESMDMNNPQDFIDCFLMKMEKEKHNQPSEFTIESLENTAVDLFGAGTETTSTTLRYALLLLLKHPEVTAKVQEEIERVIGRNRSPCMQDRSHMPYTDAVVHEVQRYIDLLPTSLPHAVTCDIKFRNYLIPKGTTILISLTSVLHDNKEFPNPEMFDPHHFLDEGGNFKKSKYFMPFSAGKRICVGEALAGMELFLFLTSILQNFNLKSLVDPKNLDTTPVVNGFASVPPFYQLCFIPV
Cytochrome P450 2D6, sequence (P10635 whole entry): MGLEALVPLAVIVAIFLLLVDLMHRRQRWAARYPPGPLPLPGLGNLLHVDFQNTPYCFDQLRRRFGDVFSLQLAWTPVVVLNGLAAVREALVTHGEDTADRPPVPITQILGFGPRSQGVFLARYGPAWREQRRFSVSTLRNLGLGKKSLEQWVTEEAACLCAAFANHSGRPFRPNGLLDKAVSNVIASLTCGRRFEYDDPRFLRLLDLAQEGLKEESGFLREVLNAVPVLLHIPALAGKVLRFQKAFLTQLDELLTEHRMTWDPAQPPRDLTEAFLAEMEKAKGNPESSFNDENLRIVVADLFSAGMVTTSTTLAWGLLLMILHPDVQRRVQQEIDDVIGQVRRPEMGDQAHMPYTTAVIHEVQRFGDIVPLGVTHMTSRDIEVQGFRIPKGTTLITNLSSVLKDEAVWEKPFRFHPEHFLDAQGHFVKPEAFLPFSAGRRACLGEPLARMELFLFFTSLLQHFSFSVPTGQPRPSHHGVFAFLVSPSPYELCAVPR

For orientation: inhibition means the share of the control response that was lost under treatment. By solubility is commonly meant the concentration that dissolves in the medium under given conditions. The term pIC50 denotes the negative decadic logarithm of the IC50, by convention in mol/L. In general, Cmax refers to the highest concentration seen after dosing. As a reminder, the clearance is the rate of elimination divided by the concentration. Low readings indicate inefficient removal, high ones efficient removal. For orientation: Tmax means the time at which the peak concentration occurs. As a reminder, the half-life is the time in which the quantity being followed falls by half. A high value points to slow decline. Broadly, the AUC(0-t) is the area under the concentration-time curve up to a stated or last time point. The low end stands for less exposure, the high end for more exposure. As a reminder, the bioavailability is dose-corrected exposure relative to a reference, in per cent. With `Cc1cccc(Cl)c1C(=O)c1cn(-c2ccc(C(=O)O)cc2)c2ccccc12`, the figures for the inhibition in data set [1], in data set [3] and in [14] were 3%, 56% and 49%, respectively. In addition, the solubility was greater than 2000 µM in [2], 1 µM (≈ 0.39 µg/mL) in data set [9] and 1 µM (≈ 0.39 µg/mL) in [17]. Also, the negative-log IC50 (pIC50) in data set [4] was 4.87; in data set [11], less than 4.30; in data set [12] it was 7.60; in data set [15] it was less than 4.30; in [16], less than 4.30; in [19] it was less than 4.52. Also, the pIC50 in [23] is less than 4.30. Moreover, the remaining at 0.5 h, 1 µM in data set [5] was determined as 83%; in data set [8], 89%; in data set [22], 85%. The molecule further showed a Cmax in [6] of 18.3 µM. This molecule showed a clearance in data set [7] of 9.6 mL/min/kg. Also, the Tmax in [10] is 0.25 h. The half-life in data set [13] was 3.2 h. The same molecule returned an AUC(0-t) at 24 h in data set [18] of 19.6 µM·h. Further, the bioavailability in data set [20] is 45%. Also, in data set [21], the Vd stood at 2.5 L/kg.

On to `C[C@H]1C[C@H]2[C@@H]3CCC4=CC(=O)C=C[C@]4(C)[C@@]3(F)[C@@H](O)C[C@]2(C)[C@@]1(O)C(=O)CO`, for which the outcome in data set [24] and in [25] was Active.

As for `O=C(O)c1ccc(-n2cc(C(=O)c3c(Cl)cccc3Cl)c3ccncc32)cc1`, the inhibition in data set [26] turned out to be 27%. In addition, the remaining at 0.5 h, 1 µM in data set [22] stood at 100%.
